SMILES strings stand for the structures. Some results are limits rather than exact numbers.

This test deals with T1, Gag-Pol polyprotein [588-1027]/[588-1147] (Human immunodeficiency virus 1, UniProt P04585).
T1 construct: 588-1027; 588-1147
Put plainly: HIV-1 RT Assay. As to conditions: pH 8.2. The text has this: The IC50 of reverse transcriptase is the concentration that inhibits 50% of recombinant HIV-1 RT RNA-directed DNA polymerase activity in vitro.

A word on the IC50: it is the point on the concentration scale where inhibition reaches its midpoint. `O=C1Nc2ccc(Cl)cc2C(C#Cc2cc([N+](=O)[O-])ccn2)(C2CC2)N1` (stereo unspecified) [6-chloro-4-cyclopropyl-4-[2-(4-nitropyridin-2-yl)ethynyl]-1,2,3,4-tetrahydroquinazolin-2-one] showed an IC50 above 10 µM.

The values above are taken from BindingDB's records for doi:10.1021/jm00041a023 (Merck Research Laboratories, 1994).
